The values below come from patent publication US20250353891A1 (MEDIMMUNE LIMITED, priority 2022, published 2025).

The target of assay [1] is human glucagon receptor (hGCGR) (Homo sapiens, UniProt P47871). Put plainly: cAMP production (HTRF) in CHO cells expressing hGCGR. The format is cell-based. On the set-up: expressed in transfected cells. The settings on record: Table 6, peptides modified at position 17; cAMP in CHO hGCGR cells; geometric mean; read-out: hGluc-R EC50. Summed up:
(§1)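 Potency values represent EC50 from 4-parameter logistic curves of HTRF % Delta F signal. Receptor-expressing CHO cells (hGCGR 2×10^5 cells/mL, hGLP-1R 1×10^5 cells/mL) were exposed for 30 min at room temperature before two-step cAMP detection.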
For orientation: Cyclic AMP is a second messenger, typically raised through Gs and lowered through Gi signalling.

Assay [2] has as its target human GLP-1 receptor (hGLP-1R) (Homo sapiens, UniProt P43220). Description: cAMP production (HTRF) in CHO cells expressing hGLP-1R. The format is cell-based. The settings on record: for EC50: Table 6, peptides modified at position 17, cAMP in CHO hGLP-1R cells, geometric mean, read-out: hGLP-1R EC50; for % Relative Potency Ratio: Table 6, % GLP-1R activity relative to GLP-1 / % GlucR activity relative to glucagon. Set-up: expressed in transfected cells. The gist of the method: as §1

The structures appear in SMILES notation. Starred links: 1 amine or outer side, 2 acyl side, 3 side chain; linkers in the order of their positions; H or OH if unused. Non-standard residues stand in square brackets, D forms with d. Residues, ends and D or L forms follow the SMILES beside them. Groups on a side chain read outwards from the residue. *: point of attachment. C20 diacid = O=C(O)CCCCCCCCCCCCCCCCCCC(=O)*; C18 diacid = O=C(O)CCCCCCCCCCCCCCCCC(=O)*; γGlu = O=C(O)[C@H](CCC(=O)[*:2])N[*:1]; αMeF = C[C@](N)(Cc1ccccc1)C(=O)O; AEEA = NCCOCCOCC(=O)O; Aib = CC(C)(N)C(=O)O

The EC50 is the midpoint of the concentration-response curve.

Chain of human GLP-1 receptor (hGLP-1R) (P43220 24-463): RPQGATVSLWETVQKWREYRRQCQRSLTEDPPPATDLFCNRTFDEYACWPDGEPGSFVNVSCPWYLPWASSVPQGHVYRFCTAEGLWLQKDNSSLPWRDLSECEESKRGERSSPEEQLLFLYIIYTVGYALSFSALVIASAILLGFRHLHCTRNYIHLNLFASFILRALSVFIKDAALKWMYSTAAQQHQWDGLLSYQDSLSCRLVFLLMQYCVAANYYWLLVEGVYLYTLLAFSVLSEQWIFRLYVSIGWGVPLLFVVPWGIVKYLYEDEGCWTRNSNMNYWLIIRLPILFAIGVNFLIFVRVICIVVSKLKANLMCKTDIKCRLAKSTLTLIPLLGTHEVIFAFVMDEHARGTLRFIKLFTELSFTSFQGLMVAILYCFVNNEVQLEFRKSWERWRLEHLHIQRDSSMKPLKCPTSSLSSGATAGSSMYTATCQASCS
Chain of human glucagon receptor (hGCGR) (P47871 26-477): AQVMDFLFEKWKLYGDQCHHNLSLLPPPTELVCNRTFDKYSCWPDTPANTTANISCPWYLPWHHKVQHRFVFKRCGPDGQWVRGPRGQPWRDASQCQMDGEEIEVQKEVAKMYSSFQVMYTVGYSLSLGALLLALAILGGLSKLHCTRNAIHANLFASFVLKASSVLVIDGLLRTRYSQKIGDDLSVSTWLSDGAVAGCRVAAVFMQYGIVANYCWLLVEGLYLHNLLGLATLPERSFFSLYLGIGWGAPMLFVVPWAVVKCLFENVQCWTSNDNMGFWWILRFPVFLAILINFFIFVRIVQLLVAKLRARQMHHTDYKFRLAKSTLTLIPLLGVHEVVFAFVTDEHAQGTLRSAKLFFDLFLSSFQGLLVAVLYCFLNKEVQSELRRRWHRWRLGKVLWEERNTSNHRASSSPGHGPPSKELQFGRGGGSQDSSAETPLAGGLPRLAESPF

For the compound `CC(C)C[C@H](NC(=O)[C@H](Cc1c[nH]c2ccccc12)NC(=O)[C@H](CCCNC(=N)N)NC(=O)[C@@H](NC(=O)[C@H](Cc1ccccc1)NC(=O)[C@H](CC(=O)O)NC(=O)[C@H](CCCNC(=N)N)NC(=O)[C@H](C)NC(=O)[C@H](CCCNC(=N)N)NC(=O)[C@H](CCCCNC(=O)COCCOCCNC(=O)COCCOCCNC(=O)CC[C@H](NC(=O)CCCCCCCCCCCCCCCCC(=O)O)C(=O)O)NC(=O)[C@@H](NC(=O)[C@H](CC(=O)O)NC(=O)[C@H](CC(C)C)NC(=O)[C@](C)(Cc1ccccc1)NC(=O)[C@H](CCCCN)NC(=O)[C@H](CO)NC(=O)[C@@H](NC(=O)[C@H](CC(=O)O)NC(=O)[C@H](CO)NC(=O)[C@@H](NC(=O)[C@H](Cc1ccccc1)NC(=O)[C@@H](NC(=O)CNC(=O)[C@H](CCC(N)=O)NC(=O)C(C)(C)NC(=O)[C@@H](N)Cc1c[nH]cn1)[C@@H](C)O)[C@@H](C)O)C(C)C)[C@@H](C)O)C(C)C)C(=O)N[C@@H](CC(C)C)C(=O)NC(C)(C)C(=O)N[C@H](C(=O)N[C@@H](CCC(=O)O)C(=O)O)[C@@H](C)O` [Peptide 491] (H-H[Aib]QGTFTSDVSK[αMeF]LDTK([AEEA-AEEA-γGlu-C18 diacid])RARDFVRWLL[Aib]TE-OH; N-terminus assumed), the figures for the EC50 in assay [1] and in assay [2] were 0.232 nM and 0.0736 nM, respectively. Besides, the “% Relative Potency Ratio” value in assay [2] stood at 6.2.

Consider `CC(C)C[C@H](NC(=O)[C@H](Cc1c[nH]c2ccccc12)NC(=O)[C@H](CCCNC(=N)N)NC(=O)[C@@H](NC(=O)[C@H](Cc1ccccc1)NC(=O)[C@H](CC(=O)O)NC(=O)[C@H](CCCNC(=N)N)NC(=O)[C@H](C)NC(=O)[C@H](CCCNC(=N)N)NC(=O)[C@H](CCCCNC(=O)COCCOCCNC(=O)COCCOCCNC(=O)CC[C@H](NC(=O)CCCCCCCCCCCCCCCCCCC(=O)O)C(=O)O)NC(=O)[C@@H](NC(=O)[C@H](CC(=O)O)NC(=O)[C@H](CC(C)C)NC(=O)[C@](C)(Cc1ccccc1)NC(=O)[C@H](CCCCN)NC(=O)[C@H](CO)NC(=O)[C@@H](NC(=O)[C@H](CC(=O)O)NC(=O)[C@H](CO)NC(=O)[C@@H](NC(=O)[C@H](Cc1ccccc1)NC(=O)[C@@H](NC(=O)CNC(=O)[C@H](CCC(N)=O)NC(=O)C(C)(C)NC(=O)[C@@H](N)Cc1c[nH]cn1)[C@@H](C)O)[C@@H](C)O)C(C)C)[C@@H](C)O)C(C)C)C(=O)N[C@@H](CC(C)C)C(=O)NC(C)(C)C(=O)N[C@H](C(=O)N[C@@H](CCC(=O)O)C(=O)O)[C@@H](C)O` [Peptide 492] (H-H[Aib]QGTFTSDVSK[αMeF]LDTK([AEEA-AEEA-γGlu-C20 diacid])RARDFVRWLL[Aib]TE-OH; N-terminus assumed), for which, in assay [1], the EC50 worked out at 0.374 nM. Also, in assay [2], the EC50 is 0.212 nM and the “% Relative Potency Ratio” value amounted to 3.5.

With `CC(C)C[C@H](NC(=O)[C@H](Cc1c[nH]c2ccccc12)NC(=O)[C@H](CCCNC(=N)N)NC(=O)[C@@H](NC(=O)[C@H](Cc1ccccc1)NC(=O)[C@H](CC(=O)O)NC(=O)[C@H](CCC(N)=O)NC(=O)[C@H](C)NC(=O)[C@H](CCCNC(=N)N)NC(=O)[C@H](CCCCNC(=O)COCCOCCNC(=O)COCCOCCNC(=O)CC[C@H](NC(=O)CCCCCCCCCCCCCCCCC(=O)O)C(=O)O)NC(=O)[C@@H](NC(=O)[C@H](CC(=O)O)NC(=O)[C@H](CC(C)C)NC(=O)[C@](C)(Cc1ccccc1)NC(=O)[C@H](CCCCN)NC(=O)[C@H](CO)NC(=O)[C@@H](NC(=O)[C@H](CC(=O)O)NC(=O)[C@H](CO)NC(=O)[C@@H](NC(=O)[C@H](Cc1ccccc1)NC(=O)[C@@H](NC(=O)CNC(=O)[C@H](CCC(N)=O)NC(=O)C(C)(C)NC(=O)[C@@H](N)Cc1c[nH]cn1)[C@@H](C)O)[C@@H](C)O)C(C)C)[C@@H](C)O)C(C)C)C(=O)N[C@@H](CC(C)C)C(=O)N[C@@H](CCCNC(=N)N)C(=O)NC(C)(C)C(=O)N[C@@H](CCCCN)C(=O)O` [Peptide 493] (H-H[Aib]QGTFTSDVSK[αMeF]LDTK([AEEA-AEEA-γGlu-C18 diacid])RAQDFVRWLLR[Aib]K-OH; N-terminus assumed), in assay [1], the EC50 was 0.166 nM. In assay [2], the half-maximal effective concentration (EC50) was 0.0235 nM and the “% Relative Potency Ratio” value is reported as 14.0.

On to `CC(C)C[C@H](NC(=O)[C@H](Cc1c[nH]c2ccccc12)NC(=O)[C@H](CCCNC(=N)N)NC(=O)[C@@H](NC(=O)[C@H](Cc1ccccc1)NC(=O)[C@H](CC(=O)O)NC(=O)[C@H](CCC(N)=O)NC(=O)[C@H](C)NC(=O)[C@H](CCCNC(=N)N)NC(=O)[C@H](CCCCNC(=O)COCCOCCNC(=O)COCCOCCNC(=O)CC[C@H](NC(=O)CCCCCCCCCCCCCCCCCCC(=O)O)C(=O)O)NC(=O)[C@@H](NC(=O)[C@H](CC(=O)O)NC(=O)[C@H](CC(C)C)NC(=O)[C@](C)(Cc1ccccc1)NC(=O)[C@H](CCCCN)NC(=O)[C@H](CO)NC(=O)[C@@H](NC(=O)[C@H](CC(=O)O)NC(=O)[C@H](CO)NC(=O)[C@@H](NC(=O)[C@H](Cc1ccccc1)NC(=O)[C@@H](NC(=O)CNC(=O)[C@H](CCC(N)=O)NC(=O)C(C)(C)NC(=O)[C@@H](N)Cc1c[nH]cn1)[C@@H](C)O)[C@@H](C)O)C(C)C)[C@@H](C)O)C(C)C)C(=O)N[C@@H](CC(C)C)C(=O)N[C@@H](CCCNC(=N)N)C(=O)NC(C)(C)C(=O)N[C@@H](CCCCN)C(=O)O` [Peptide 494], for which, in assay [1], the EC50 stood at 0.212 nM. In addition, in assay [2], the EC50 is 0.0987 nM and the “% Relative Potency Ratio” value came out at 4.3.

As for `CC(C)C[C@H](NC(=O)[C@H](Cc1c[nH]c2ccccc12)NC(=O)[C@H](CCCNC(=N)N)NC(=O)[C@@H](NC(=O)[C@H](Cc1ccccc1)NC(=O)[C@H](CC(=O)O)NC(=O)[C@H](CCC(N)=O)NC(=O)[C@H](C)NC(=O)[C@H](CCCNC(=N)N)NC(=O)[C@H](CCCCNC(=O)COCCOCCNC(=O)COCCOCCNC(=O)CC[C@H](NC(=O)CCCCCCCCCCCCCCCCC(=O)O)C(=O)O)NC(=O)[C@@H](NC(=O)[C@H](CC(=O)O)NC(=O)[C@H](CC(C)C)NC(=O)[C@](C)(Cc1ccccc1)NC(=O)[C@H](CCCCN)NC(=O)[C@H](CO)NC(=O)[C@@H](NC(=O)[C@H](CC(=O)O)NC(=O)[C@H](CO)NC(=O)[C@@H](NC(=O)[C@H](Cc1ccccc1)NC(=O)[C@@H](NC(=O)CNC(=O)[C@H](CCC(N)=O)NC(=O)C(C)(C)NC(=O)[C@@H](N)Cc1c[nH]cn1)[C@@H](C)O)[C@@H](C)O)C(C)C)[C@@H](C)O)C(C)C)C(=O)N[C@@H](CC(C)C)C(=O)N[C@@H](CCCNC(=N)N)C(=O)NC(C)(C)C(=O)N[C@@H](CCCCN)C(N)=O` [Peptide 495] (H-H[Aib]QGTFTSDVSK[αMeF]LDTK([AEEA-AEEA-γGlu-C18 diacid])RAQDFVRWLLR[Aib]K-NH2; N-terminus assumed), the EC50 in assay [1] amounted to 0.38 nM. Further, in assay [2], the EC50 amounted to 0.0232 nM and the “% Relative Potency Ratio” value came out at 32.4.

As for `CC(C)C[C@H](NC(=O)[C@H](Cc1c[nH]c2ccccc12)NC(=O)[C@H](CCCNC(=N)N)NC(=O)[C@@H](NC(=O)[C@H](Cc1ccccc1)NC(=O)[C@H](CC(=O)O)NC(=O)[C@H](CCC(N)=O)NC(=O)[C@H](C)NC(=O)[C@H](CCCNC(=N)N)NC(=O)[C@H](CCCCNC(=O)COCCOCCNC(=O)COCCOCCNC(=O)CC[C@H](NC(=O)CCCCCCCCCCCCCCCCCCC(=O)O)C(=O)O)NC(=O)[C@@H](NC(=O)[C@H](CC(=O)O)NC(=O)[C@H](CC(C)C)NC(=O)[C@](C)(Cc1ccccc1)NC(=O)[C@H](CCCCN)NC(=O)[C@H](CO)NC(=O)[C@@H](NC(=O)[C@H](CC(=O)O)NC(=O)[C@H](CO)NC(=O)[C@@H](NC(=O)[C@H](Cc1ccccc1)NC(=O)[C@@H](NC(=O)CNC(=O)[C@H](CCC(N)=O)NC(=O)C(C)(C)NC(=O)[C@@H](N)Cc1c[nH]cn1)[C@@H](C)O)[C@@H](C)O)C(C)C)[C@@H](C)O)C(C)C)C(=O)N[C@@H](CC(C)C)C(=O)N[C@@H](CCCNC(=N)N)C(=O)NC(C)(C)C(=O)N[C@@H](CCCCN)C(N)=O` [Peptide 496] (H-H[Aib]QGTFTSDVSK[αMeF]LDTK([AEEA-AEEA-γGlu-C20 diacid])RAQDFVRWLLR[Aib]K-NH2; N-terminus assumed), the EC50 was 0.482 nM in assay [1] and 0.0649 nM in assay [2]. Moreover, the “% Relative Potency Ratio” value in assay [2] is listed as 14.7.

As for `CC(C)C[C@H](NC(=O)[C@H](Cc1c[nH]c2ccccc12)NC(=O)[C@H](CCCNC(=N)N)NC(=O)[C@@H](NC(=O)[C@H](Cc1ccccc1)NC(=O)[C@H](CC(=O)O)NC(=O)[C@H](CCC(N)=O)NC(=O)[C@H](C)NC(=O)[C@H](CCCNC(=N)N)NC(=O)[C@H](CCCCNC(=O)COCCOCCNC(=O)COCCOCCNC(=O)CC[C@H](NC(=O)CCCCCCCCCCCCCCCCC(=O)O)C(=O)O)NC(=O)[C@@H](NC(=O)[C@H](CC(=O)O)NC(=O)[C@H](CC(C)C)NC(=O)[C@](C)(Cc1ccccc1)NC(=O)[C@H](CCCCN)NC(=O)[C@H](CO)NC(=O)[C@@H](NC(=O)[C@H](CC(=O)O)NC(=O)[C@H](CO)NC(=O)[C@@H](NC(=O)[C@H](Cc1ccccc1)NC(=O)[C@@H](NC(=O)CNC(=O)[C@H](CCC(N)=O)NC(=O)C(C)(C)NC(=O)[C@@H](N)Cc1c[nH]cn1)[C@@H](C)O)[C@@H](C)O)C(C)C)[C@@H](C)O)C(C)C)C(=O)N[C@@H](CC(C)C)C(=O)N[C@@H](CCCNC(=N)N)C(=O)NC(C)(C)C(=O)N[C@@H](C)C(=O)O` [Peptide 497] (H-H[Aib]QGTFTSDVSK[αMeF]LDTK([AEEA-AEEA-γGlu-C18 diacid])RAQDFVRWLLR[Aib]A-OH), the EC50 in assay [1] amounted to 0.118 nM; in assay [2], 0.0374 nM. Moreover, the “% Relative Potency Ratio” value in assay [2] is listed as 6.3.
